Results taken from patent publication US6764855B2, “Fluorescent hplc assay for 20-hete and other p-450 metabolites of arachidonic acid” (MCW Research Foundation, priority 2000, dated 2004).

Assays:
[1] = system: urinary excretion of 20-HETE; experiment: Effect of an irreversible P-450 inhibitor on the urinary excretion of 20-HETE; assay type: in vivo, rats; conditions: ABT 50 mg/kg ip, second 50 mg/kg injection 12 h later, 24-h urine vs control
Procedure: To label the fatty acids, we resuspended samples, which were extracted and dried under argon, in 20 μl of acetonitrile containing 36.4 mM 2-(2,3-naphthalimino)ethyl trifluoromethanesulfonate. N,N-diisopropylethylamine (10 μl) was added to catalyze the reaction. The sample was reacted for 30 min at room temperature. The reactions were dried down under argon, resuspended in 1 ml of 20% acetonitrile:water, and applied to a Sep-Pak Vac column. The column was washed with 6 ml of 50% acetonitrile:water solution to remove unreacted dye and eluted with 500 μl of ethyl acetate. The eluent was dried under argon, and the samples were resuspended in 100 μl of the IPLC mobile phase (methanol:water:acetic acid, 82:18:0.1 vol/vol/vol). […] Fluorescence intensity was continuously monitored using a fluorescence detector (model L-7480; Hitachi, Naperville, Ill.) at a medium gain sensitivity. The amount of 20-HETE in the sample was determined by comparing the area of the 20-HETE peak to that of an internal standard. […]
SHR and normotensive Sprague-Dawley rats were placed in special metabolic cages (model 650-00350; Nalgene, Rochester, N.Y.) that efficiently separated urine from food and feces and were allowed to equilibrate for 5 days. […] The radioactive products were monitored using a radioactive flow detector (model 120; Radiomatic Instrument, Tampa, Fla.).

P-4504A enzyme = P-4504A enzyme activity (20-HETE production) in renal cortical microsomes from treated rats; assay type: in vivo
From the text: SHR and normotensive Sprague-Dawley rats were placed in special metabolic cages (model 650-00350; Nalgene, Rochester, N.Y.) that efficiently separated urine from food and feces and were allowed to equilibrate for 5 days. After 5 days, the food was withdrawn from the rat to prevent contamination of the urine sample and a 24-h control urine sample was collected on dry ice. After the control sample was collected, food was returned to the rats, and after a 2-day recovery period, the rats received an intraperitoneal injection of ABT (50 mg/kg) followed by a second (50 mg/kg) injection 12 h later. Two hours after administration of the first dose of ABT, food was withdrawn and a 24-h experimental urine sample was collected on dry ice. After the urine was collected, the rats were killed with pentobarbital sodium (100 mg/kg ip), and the kidneys were collected. The renal cortex was separated from the renal medulla, frozen in liquid nitrogen, and stored overnight for measurement of the renal metabolism of AA. Briefly, the renal cortex was homogenized in a 10 mM potassium phosphate buffer (pH 7.7) containing 250 mM sucrose, 1 mM EDTA, and 10 mM magnesium chloride, and microsomes were prepared by differential centrifugation. […] The radioactive products were monitored using a radioactive flow detector (model 120; Radiomatic Instrument, Tampa, Fla.).

Nn1nnc2ccccc21 [ABT, 1-aminobenzotriazole]
fall in urinary excretion of 20-HETE after administration of ABT ([1]; SHR (n=4)): 65±10% | fall in urinary excretion of 20-HETE after administration of ABT ([1]; Sprague-Dawley rats (n=5)): 74±9% | 20-HETE production by renal cortical microsomes (P-4504A enzyme; microsomes from kidneys of ABT-treated SHR (n=4), vehicle 459±192): 12±4 pmol●min^−1●mg^−1 | 20-HETE production by renal cortical microsomes (P-4504A enzyme; microsomes from kidneys of ABT-treated Sprague-Dawley rats (n=5), vehicle 324±25): 25±3 pmol●min^−1●mg^−1
